Measurements taken from patent publication US20100137449A1, “SUBSTITUTED 1,3-CYCLOPENTADIONE MULTI-TARGET PROTEIN KINASE MODULATORS OF CANCER, ANGIOGENESIS AND THE INFLAMMATORY PATHWAYS ASSOCIATED THEREWITH” (METAPROTEOMICS, LLC, priority 2007, published 2010).

Legend:
Experiment in all cases: KinaseProfiler Assay
Hck(h) = Hck(h) (Homo sapiens, UniProt P08631)
Abl(Y253F)(h) = Abl(Y253F)(h) (Homo sapiens, UniProt P00519, Y253F)
PAK3(h) = PAK3(h) (Homo sapiens, UniProt O75914)
NEK6(h) = NEK6(h) (Homo sapiens, UniProt Q9HC98)
Tie2(R849W)(h) = Tie2(R849W)(h) (Homo sapiens, UniProt Q02763, R849W)
CHK2(R145W)(h) = CHK2(R145W)(h) (Homo sapiens, UniProt O96017, R145W)
DAPK1(h) = DAPK1(h) (Homo sapiens, UniProt P53355)
SAPK4(h) = molecular target: T1, SAPK4(h) (Homo sapiens, UniProt O15264)
T1 sequence (O15264 1-365): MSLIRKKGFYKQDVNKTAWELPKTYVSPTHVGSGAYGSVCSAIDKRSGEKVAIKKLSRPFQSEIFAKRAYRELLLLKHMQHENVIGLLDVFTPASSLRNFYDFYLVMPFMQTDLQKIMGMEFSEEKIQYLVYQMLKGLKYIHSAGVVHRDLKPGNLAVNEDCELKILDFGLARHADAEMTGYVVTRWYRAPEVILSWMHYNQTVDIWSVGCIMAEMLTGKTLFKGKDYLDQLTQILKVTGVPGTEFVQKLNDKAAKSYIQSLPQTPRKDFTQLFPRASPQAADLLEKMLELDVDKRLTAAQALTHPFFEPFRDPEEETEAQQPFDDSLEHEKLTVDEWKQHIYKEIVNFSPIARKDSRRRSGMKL

TBK1(h) = molecular target: T2, TBK1(h) (Homo sapiens, UniProt Q9UHD2)
T2 sequence (Q9UHD2 1-729): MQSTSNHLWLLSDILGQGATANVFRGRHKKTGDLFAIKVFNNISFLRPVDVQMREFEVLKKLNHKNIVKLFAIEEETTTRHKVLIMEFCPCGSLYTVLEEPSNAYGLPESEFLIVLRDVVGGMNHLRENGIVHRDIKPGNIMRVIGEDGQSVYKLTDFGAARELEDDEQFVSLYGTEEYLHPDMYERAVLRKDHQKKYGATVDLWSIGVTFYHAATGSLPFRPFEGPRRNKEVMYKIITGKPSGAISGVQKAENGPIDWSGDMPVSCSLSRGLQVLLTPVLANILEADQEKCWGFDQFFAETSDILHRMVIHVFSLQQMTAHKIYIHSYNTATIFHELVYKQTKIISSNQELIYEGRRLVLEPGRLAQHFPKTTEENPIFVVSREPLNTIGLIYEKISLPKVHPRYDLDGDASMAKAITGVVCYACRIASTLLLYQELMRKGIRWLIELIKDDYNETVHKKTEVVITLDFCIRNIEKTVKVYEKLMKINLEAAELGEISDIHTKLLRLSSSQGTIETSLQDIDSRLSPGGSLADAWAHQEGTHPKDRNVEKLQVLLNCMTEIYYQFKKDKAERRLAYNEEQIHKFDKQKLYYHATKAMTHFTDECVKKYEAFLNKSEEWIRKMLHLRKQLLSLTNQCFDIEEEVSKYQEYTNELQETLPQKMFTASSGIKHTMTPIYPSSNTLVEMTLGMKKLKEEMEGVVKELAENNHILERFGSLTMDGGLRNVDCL

Chain of DAPK1(h) (P53355 whole entry): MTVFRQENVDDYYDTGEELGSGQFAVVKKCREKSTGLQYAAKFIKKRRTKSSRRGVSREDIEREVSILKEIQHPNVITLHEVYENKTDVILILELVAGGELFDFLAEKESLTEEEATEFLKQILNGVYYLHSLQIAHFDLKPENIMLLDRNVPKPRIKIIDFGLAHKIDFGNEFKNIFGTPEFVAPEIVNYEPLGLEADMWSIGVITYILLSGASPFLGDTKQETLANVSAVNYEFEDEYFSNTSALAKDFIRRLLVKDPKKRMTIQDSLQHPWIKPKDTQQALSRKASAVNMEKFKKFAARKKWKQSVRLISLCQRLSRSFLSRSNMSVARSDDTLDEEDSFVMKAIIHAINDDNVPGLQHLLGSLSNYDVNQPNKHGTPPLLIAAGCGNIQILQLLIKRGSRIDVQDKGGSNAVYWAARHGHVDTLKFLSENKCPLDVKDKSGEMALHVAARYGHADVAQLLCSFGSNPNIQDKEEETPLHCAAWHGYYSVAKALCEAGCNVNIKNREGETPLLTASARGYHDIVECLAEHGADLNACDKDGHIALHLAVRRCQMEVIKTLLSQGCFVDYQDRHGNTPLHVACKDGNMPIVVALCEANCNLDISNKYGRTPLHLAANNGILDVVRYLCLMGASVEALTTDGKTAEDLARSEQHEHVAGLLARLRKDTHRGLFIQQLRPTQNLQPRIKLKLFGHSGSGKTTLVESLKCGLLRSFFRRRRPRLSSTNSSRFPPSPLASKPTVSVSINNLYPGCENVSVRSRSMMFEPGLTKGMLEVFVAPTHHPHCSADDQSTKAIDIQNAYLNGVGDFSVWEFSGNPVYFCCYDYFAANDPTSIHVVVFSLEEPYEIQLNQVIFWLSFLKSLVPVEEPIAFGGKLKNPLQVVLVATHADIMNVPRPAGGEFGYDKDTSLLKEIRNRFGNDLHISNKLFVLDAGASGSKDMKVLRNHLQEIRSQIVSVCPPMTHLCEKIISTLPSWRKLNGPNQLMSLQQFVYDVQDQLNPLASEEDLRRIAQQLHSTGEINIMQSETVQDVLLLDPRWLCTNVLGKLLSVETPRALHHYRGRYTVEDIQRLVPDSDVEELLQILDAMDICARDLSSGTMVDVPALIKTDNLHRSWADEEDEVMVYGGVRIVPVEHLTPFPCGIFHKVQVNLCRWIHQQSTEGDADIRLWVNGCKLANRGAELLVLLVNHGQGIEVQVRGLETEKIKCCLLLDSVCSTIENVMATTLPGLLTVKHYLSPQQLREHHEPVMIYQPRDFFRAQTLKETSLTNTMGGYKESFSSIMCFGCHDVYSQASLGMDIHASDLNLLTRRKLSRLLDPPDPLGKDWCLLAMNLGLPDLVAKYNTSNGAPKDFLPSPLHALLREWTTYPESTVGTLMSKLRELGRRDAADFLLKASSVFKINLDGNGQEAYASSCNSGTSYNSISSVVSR
Chain of PAK3(h) (O75914 whole entry): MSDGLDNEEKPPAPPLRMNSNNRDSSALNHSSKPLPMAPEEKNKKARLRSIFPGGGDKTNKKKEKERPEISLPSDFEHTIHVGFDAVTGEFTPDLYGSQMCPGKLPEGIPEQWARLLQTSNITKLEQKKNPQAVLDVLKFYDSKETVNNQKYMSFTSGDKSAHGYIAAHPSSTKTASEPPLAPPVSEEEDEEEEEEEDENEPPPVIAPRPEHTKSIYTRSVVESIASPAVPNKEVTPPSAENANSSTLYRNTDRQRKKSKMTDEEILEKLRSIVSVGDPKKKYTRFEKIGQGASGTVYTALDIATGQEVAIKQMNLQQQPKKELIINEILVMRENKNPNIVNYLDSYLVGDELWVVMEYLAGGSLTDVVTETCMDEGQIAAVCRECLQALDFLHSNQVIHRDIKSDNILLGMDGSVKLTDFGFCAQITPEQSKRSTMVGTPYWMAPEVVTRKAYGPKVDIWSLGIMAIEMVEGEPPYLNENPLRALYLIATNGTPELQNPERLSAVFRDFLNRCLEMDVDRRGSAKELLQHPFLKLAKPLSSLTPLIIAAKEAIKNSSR
Chain of Tie2(R849W)(h) (Q02763 23-1124 R849W): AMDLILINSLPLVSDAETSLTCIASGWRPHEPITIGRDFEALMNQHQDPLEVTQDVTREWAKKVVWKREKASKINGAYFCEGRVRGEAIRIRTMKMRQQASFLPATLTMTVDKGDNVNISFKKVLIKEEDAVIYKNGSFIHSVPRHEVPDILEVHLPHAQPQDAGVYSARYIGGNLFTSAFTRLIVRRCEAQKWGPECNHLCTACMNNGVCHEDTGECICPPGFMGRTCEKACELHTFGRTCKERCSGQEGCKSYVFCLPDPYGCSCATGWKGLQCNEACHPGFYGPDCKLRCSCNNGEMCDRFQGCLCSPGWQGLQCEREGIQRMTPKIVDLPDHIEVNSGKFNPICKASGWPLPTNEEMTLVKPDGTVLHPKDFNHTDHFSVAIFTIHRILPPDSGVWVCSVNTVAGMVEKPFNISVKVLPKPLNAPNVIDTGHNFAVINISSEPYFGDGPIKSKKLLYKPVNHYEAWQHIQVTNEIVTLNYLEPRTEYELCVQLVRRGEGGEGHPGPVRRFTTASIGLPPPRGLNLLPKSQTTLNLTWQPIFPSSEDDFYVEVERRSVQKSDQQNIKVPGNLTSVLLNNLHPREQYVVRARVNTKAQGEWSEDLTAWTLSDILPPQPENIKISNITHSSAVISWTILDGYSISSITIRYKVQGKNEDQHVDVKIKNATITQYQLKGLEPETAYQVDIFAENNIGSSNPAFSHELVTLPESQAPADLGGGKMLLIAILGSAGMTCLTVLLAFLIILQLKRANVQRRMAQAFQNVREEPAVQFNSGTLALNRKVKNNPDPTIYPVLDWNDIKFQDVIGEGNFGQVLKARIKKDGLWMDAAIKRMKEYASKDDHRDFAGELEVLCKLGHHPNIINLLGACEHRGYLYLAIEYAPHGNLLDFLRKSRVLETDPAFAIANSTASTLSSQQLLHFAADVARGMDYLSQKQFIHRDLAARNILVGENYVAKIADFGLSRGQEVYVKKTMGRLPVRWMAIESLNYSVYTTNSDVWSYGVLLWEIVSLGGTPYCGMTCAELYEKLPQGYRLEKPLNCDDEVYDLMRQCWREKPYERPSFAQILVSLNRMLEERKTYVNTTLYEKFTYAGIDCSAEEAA
Chain of CHK2(R145W)(h) (O96017 whole entry R145W): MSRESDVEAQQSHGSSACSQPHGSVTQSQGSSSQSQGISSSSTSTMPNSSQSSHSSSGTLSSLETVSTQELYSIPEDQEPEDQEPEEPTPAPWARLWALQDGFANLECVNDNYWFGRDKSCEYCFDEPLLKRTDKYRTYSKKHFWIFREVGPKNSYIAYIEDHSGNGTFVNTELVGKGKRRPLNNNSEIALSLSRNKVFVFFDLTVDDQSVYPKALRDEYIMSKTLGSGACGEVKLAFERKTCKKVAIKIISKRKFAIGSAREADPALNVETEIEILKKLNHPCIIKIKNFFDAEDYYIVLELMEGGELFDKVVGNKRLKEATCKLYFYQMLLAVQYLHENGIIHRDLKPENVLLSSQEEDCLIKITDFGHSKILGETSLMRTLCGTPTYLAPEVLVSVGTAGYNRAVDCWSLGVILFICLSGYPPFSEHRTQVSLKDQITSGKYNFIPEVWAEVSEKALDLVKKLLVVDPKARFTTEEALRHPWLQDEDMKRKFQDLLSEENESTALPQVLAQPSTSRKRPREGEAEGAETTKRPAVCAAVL
Chain of NEK6(h) (Q9HC98 whole entry): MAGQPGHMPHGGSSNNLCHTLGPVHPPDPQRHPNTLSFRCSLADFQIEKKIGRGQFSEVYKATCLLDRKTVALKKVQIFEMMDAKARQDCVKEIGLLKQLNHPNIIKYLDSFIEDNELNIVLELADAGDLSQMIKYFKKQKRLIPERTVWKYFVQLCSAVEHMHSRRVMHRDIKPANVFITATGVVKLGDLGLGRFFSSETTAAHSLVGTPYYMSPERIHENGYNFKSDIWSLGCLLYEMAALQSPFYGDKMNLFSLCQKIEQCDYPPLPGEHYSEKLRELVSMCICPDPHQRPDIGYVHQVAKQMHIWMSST
Chain of Hck(h) (P08631 whole entry): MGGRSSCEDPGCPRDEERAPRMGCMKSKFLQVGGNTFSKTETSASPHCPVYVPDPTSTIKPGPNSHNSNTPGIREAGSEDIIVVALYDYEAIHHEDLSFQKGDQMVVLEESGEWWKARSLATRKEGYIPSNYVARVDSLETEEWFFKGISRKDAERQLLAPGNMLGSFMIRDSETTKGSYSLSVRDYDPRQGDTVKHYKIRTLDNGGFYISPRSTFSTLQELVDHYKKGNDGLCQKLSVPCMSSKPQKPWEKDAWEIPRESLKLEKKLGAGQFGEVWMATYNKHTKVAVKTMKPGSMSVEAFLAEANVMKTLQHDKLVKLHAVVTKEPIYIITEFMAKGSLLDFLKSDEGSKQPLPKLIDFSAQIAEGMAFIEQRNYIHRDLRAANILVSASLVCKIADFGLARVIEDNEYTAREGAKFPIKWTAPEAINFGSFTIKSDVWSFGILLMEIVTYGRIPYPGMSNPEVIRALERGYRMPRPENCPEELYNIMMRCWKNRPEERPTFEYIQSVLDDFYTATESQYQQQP

CC(C)CCC(=O)[C@]1(O)C(O)=C(C(=O)C(C)C)C(=O)[C@H]1CCC(C)C [TH2, tetrahydroiso-cohumulone]
kinase inhibition (Hck(h); 1 μg/ml): 103% of control | kinase inhibition (Hck(h); 5 μg/ml): 88% of control | kinase inhibition (Hck(h); 25 μg/ml): 76% of control | kinase inhibition (Hck(h); 50 μg/ml): 62% of control | kinase inhibition (Hck(h); 100 μg/ml): 42% of control | kinase inhibition (Abl(Y253F)(h); 1 μg/ml): 117% of control | kinase inhibition (Abl(Y253F)(h); 5 μg/ml): 100% of control | kinase inhibition (Abl(Y253F)(h); 25 μg/ml): 83% of control | kinase inhibition (Abl(Y253F)(h); 50 μg/ml): 65% of control | kinase inhibition (Abl(Y253F)(h); 100 μg/ml): 58% of control | kinase inhibition (PAK3(h); 1 μg/ml): 103% of control | kinase inhibition (PAK3(h); 5 μg/ml): 102% of control | kinase inhibition (PAK3(h); 25 μg/ml): 49% of control | kinase inhibition (PAK3(h); 50 μg/ml): 47% of control | kinase inhibition (PAK3(h); 100 μg/ml): 40% of control | kinase inhibition (NEK6(h); 1 μg/ml): 103% of control | kinase inhibition (NEK6(h); 5 μg/ml): 100% of control | kinase inhibition (NEK6(h); 25 μg/ml): 79% of control | kinase inhibition (NEK6(h); 50 μg/ml): 67% of control | kinase inhibition (NEK6(h); 100 μg/ml): 53% of control | kinase inhibition (Tie2(R849W)(h); 1 μg/ml): 91% of control | kinase inhibition (Tie2(R849W)(h); 5 μg/ml): 53% of control | kinase inhibition (Tie2(R849W)(h); 25 μg/ml): 48% of control | kinase inhibition (Tie2(R849W)(h); 50 μg/ml): 43% of control | kinase inhibition (Tie2(R849W)(h); 100 μg/ml): 46% of control | kinase inhibition (CHK2(R145W)(h); 1 μg/ml): 110% of control | kinase inhibition (CHK2(R145W)(h); 5 μg/ml): 112% of control | kinase inhibition (CHK2(R145W)(h); 25 μg/ml): 99% of control | kinase inhibition (CHK2(R145W)(h); 50 μg/ml): 86% of control | kinase inhibition (CHK2(R145W)(h); 100 μg/ml): 80% of control | kinase inhibition (DAPK1(h); 1 μg/ml): 63% of control | kinase inhibition (DAPK1(h); 5 μg/ml): 40% of control | kinase inhibition (DAPK1(h); 25 μg/ml): 32% of control | kinase inhibition (DAPK1(h); 50 μg/ml): 25% of control | kinase inhibition (DAPK1(h); 100 μg/ml): 19% of control | kinase inhibition (SAPK4(h); 1 μg/ml): 114% of control | kinase inhibition (SAPK4(h); 5 μg/ml): 118% of control | kinase inhibition (SAPK4(h); 25 μg/ml): 116% of control | kinase inhibition (SAPK4(h); 50 μg/ml): 121% of control | kinase inhibition (SAPK4(h); 100 μg/ml): 109% of control | kinase inhibition (TBK1(h); 1 μg/ml): 108% of control | kinase inhibition (TBK1(h); 5 μg/ml): 107% of control | kinase inhibition (TBK1(h); 25 μg/ml): 97% of control | kinase inhibition (TBK1(h); 50 μg/ml): 86% of control | kinase inhibition (TBK1(h); 100 μg/ml): 70% of control
